Laboratory results reported in publication PMC5814047, “Peptidic inhibitors of insulin-degrading enzyme with potential for dermatological applications discovered via phage display” (PLoS ONE, 2018).
“And” between values parts separate entries of the source, which are not always exact repeats. Equal entries are not always repeated. Blank lines part the entries; values can stand above or below the substance they belong to. Ends that are not written are not given here.

Columns and labels:
IDE [1] = biological target: T1, IDE (Homo sapiens, UniProt P14735); experiment: Vulnerability of peptides to degradation by IDE: 0 vs 4 h pre-incubation, then FRET1 assay; assay type: biochemical; conditions: for Ki: Cheng-Prusoff from IC50, FRET1 KM 10 uM, substrate 5 uM; for remaining activity at 0.12207 µM / remaining activity at 0.488281 µM / remaining activity at 1.95312 µM / remaining activity at 7.8125 µM / remaining activity at 31.25 µM / remaining activity at 125 µM / remaining activity at 500 µM: 4 h, read-out: Percent Activity (normalized initial velocity of FRET1 hydrolysis); for remaining activity at 0.12207 µM / remaining activity at 0.488281 µM / remaining activity at 1.95312 µM / remaining activity at 7.8125 µM / remaining activity at 31.25 µM / remaining activity at 125 µM / remaining activity at 500 µM / Percent Activity (normalized initial velocity of FRET1 hydrolysis): relative to DMSO-only controls; for IC50: FRET1 assay
T1 construct: made in house; host or cells: bacteria
T1 sequence (P14735 1-1019): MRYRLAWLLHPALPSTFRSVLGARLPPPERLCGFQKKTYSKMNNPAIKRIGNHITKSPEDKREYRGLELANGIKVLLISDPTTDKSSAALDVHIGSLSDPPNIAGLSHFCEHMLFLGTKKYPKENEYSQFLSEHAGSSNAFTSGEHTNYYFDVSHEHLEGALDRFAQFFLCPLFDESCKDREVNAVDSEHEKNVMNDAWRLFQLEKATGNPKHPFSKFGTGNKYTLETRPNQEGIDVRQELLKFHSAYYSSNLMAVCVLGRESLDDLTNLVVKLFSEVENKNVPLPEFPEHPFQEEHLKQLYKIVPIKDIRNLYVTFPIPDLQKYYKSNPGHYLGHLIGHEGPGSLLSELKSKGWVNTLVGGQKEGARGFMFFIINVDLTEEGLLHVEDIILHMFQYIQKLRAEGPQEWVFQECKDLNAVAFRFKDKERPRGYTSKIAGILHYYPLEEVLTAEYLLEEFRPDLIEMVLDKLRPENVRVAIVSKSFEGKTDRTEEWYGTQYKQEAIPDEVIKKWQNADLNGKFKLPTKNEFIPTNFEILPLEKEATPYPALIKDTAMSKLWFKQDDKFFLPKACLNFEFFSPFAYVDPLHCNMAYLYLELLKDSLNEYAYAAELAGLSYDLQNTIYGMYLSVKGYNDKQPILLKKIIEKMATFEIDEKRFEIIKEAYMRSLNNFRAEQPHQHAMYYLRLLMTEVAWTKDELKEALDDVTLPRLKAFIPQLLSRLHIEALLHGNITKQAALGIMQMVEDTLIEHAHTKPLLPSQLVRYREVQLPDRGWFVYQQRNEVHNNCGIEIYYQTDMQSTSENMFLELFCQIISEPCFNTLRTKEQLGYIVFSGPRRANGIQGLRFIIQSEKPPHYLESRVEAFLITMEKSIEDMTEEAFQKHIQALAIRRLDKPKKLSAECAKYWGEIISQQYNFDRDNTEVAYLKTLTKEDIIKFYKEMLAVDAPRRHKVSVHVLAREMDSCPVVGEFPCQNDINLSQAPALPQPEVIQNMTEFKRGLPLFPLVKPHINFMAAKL
Method: (§1) IDE activity was quantified by monitoring the degradation of Mca-[…](Dnp) (FRET1, 5 μM), fluoresceinated and biotinylated amyloid ß-protein (FAßB; 500 nM) or recombinant human insulin (50 nM) in PBS supplemented with 0.05% BSA. […] In vitro activity assays incorporated recombinant human IDE (1 nM) purified from bacteria. For quantitation of insulin degradation in primary murine skin fibroblasts, cells (1 x 10^5/well) were plated in 96-well plates and maintained in DMEM supplemented with 10% fetal bovine serum (FBS), 2mM glutamine, penicillin and streptomycin. After addition of insulin (10 nM or 100 nM), samples of conditioned medium were removed daily and quickly frozen, then insulin levels were quantified in parallel by ELISA according to manufacturer’s recommendations (Crystal Chem, Downers Grove, IL, USA). Assessment of the activity of P12-3A against a variety of matrix-metalloproteases was conducted using the Matrix Metalloproteinase (MMP) Inhibitor Profiling Kit, Fluorometric RED (Enzo Life Sciences, Inc., Farmingdale, NY, USA) according to manufacturer’s recommendations using the broad-spectrum MMP inhibitor, NNGH, as a positive control.

IDE [2] = biological target: T1, IDE; experiment: biochemical; conditions: for IC50: dose-response, FRET1; for IC50 <500 uM?: initial test at 500 uM; for remaining activity at 500 µM: individual replicates, read-out: Percent activity at 500 uM, Replicate 1-4; for Percent activity at 500 uM, Mean: N 4
Method: The six selected peptide sequences (C7C-1, C7C-2, 12–1, 12–2, 12–3 and 12–4) were synthesized, together with a variety of modifications, yielding a total of 25 peptides (Table 1). […] Other modifications included N-terminal acetylation and C-terminal amidation, included to mimic the charge state of the peptides when incorporated in the phage coat protein (Table 1).
as §1

IDE [3] = biological target: T1, IDE; experiment: biochemical; conditions: for Ki: substrate recombinant human insulin 50 nM, Ki from IC50 with the Cheng-Prusoff equation
From the text: The six selected peptide sequences (C7C-1, C7C-2, 12–1, 12–2, 12–3 and 12–4) were synthesized, together with a variety of modifications, yielding a total of 25 peptides (Table 1). For the 12-mer peptides, we synthesized variants of the parent peptides truncated at one or both termini, to test whether the entire sequence was necessary or not, in the hope that shorter, and thus less expensive, sequences might be effective. Other modifications included N-terminal acetylation and C-terminal amidation, included to mimic the charge state of the peptides when incorporated in the phage coat protein (Table 1). To assess the extent to which these peptide sequences inhibit IDE, we quantified their potency in protease activity assays using recombinant human IDE and two different substrates: FRET1, a fluorogenic peptide, and recombinant human insulin.
IDE activity was quantified by monitoring the degradation of Mca-[…](Dnp) (FRET1, 5 μM), fluoresceinated and biotinylated amyloid ß-protein (FAßB; 500 nM) or recombinant human insulin (50 nM) in PBS supplemented with 0.05% BSA. FRET1 degradation was measured by changes in fluorescence (λex = 340 nm, λem = 420 nm); FAßB degradation was monitored by fluorescence polarization (λex = 488 nm, λem = 525 nm), as described; and insulin degradation was quantified by ELISA. In vitro activity assays incorporated recombinant human IDE (1 nM) purified from bacteria. For quantitation of insulin degradation in primary murine skin fibroblasts, cells (1 x 10^5/well) were plated in 96-well plates and maintained in DMEM supplemented with 10% fetal bovine serum (FBS), 2mM glutamine, penicillin and streptomycin. After addition of insulin (10 nM or 100 nM), samples of conditioned medium were removed daily and quickly frozen, then insulin levels were quantified in parallel by ELISA according to manufacturer’s recommendations (Crystal Chem, Downers Grove, IL, USA). Assessment of the activity of P12-3A against a variety of matrix-metalloproteases was conducted using the Matrix Metalloproteinase (MMP) Inhibitor Profiling Kit, Fluorometric RED (Enzo Life Sciences, Inc., Farmingdale, NY, USA) according to manufacturer’s recommendations using the broad-spectrum MMP inhibitor, NNGH, as a positive control.

[4] = 4-hr incubation, Cmpd 0.12207 uM, individual runs
[5] = 4-hr incubation, Cmpd 0.488281 uM, individual runs
[6] = 4-hr incubation, Cmpd 1.95312 uM, individual runs
[7] = 4-hr incubation, Cmpd 7.8125 uM, individual runs
[8] = 4-hr incubation, Cmpd 31.25 uM, individual runs
[9] = 4-hr incubation, Cmpd 125 uM, individual runs
[10] = 4-hr incubation, Cmpd 500 uM, individual runs
[11] = 4-hr incubation, individual replicates, read-out: IC50s
[12] = 4-hr incubation, mean of 2 replicates, read-out: IC50s, Mean
[13] = substrate FRET1 5 μM, Ki from IC50 with the Cheng-Prusoff equation, read-out: Ki FRET1
[14] = initial test, percent of initial velocity relative to DMSO-only controls
[15] = peptide at 10 uM, insulin 100 nM, normalized to DMSO-only and no-enzyme controls

Ki (IDE [1]; 4-hr incubation): 131 µM
remaining activity at 0.12207 µM (IDE [1]; [4]): 90.2%
remaining activity at 0.488281 µM (IDE [1]; [5]): 82.8%
remaining activity at 1.95312 µM (IDE [1]; [6]): 80.5%
remaining activity at 7.8125 µM (IDE [1]; [7]): 70.1%
remaining activity at 31.25 µM (IDE [1]; [8]): 51.8%
remaining activity at 125 µM (IDE [1]; [9]): 36.3%
remaining activity at 500 µM (IDE [1]; [10]): 9.02%
IC50 (IDE [1]; 0-hr incubation, mean of runs, read-out: IC50s, Mean): 61.4 µM
IC50 (IDE [1]; [11]): 200 µM and 193 µM
IC50 (IDE [1]; [12]): 197 µM
Ki (IDE [2]; Cheng-Prusoff, KM 10 uM, substrate concentration 5 uM, read-out: Ki values, Mean): 40.9 µM
IC50 (IDE [2]; individual runs, read-out: IC50s, Run 1-6): 52.2 µM and 51.3 µM and 80.5 µM
IC50 (IDE [2]; read-out: IC50s, Mean): 61.4 µM
IC50 <500 uM? (IDE [2]): YES
remaining activity at 500 µM (IDE [2]; judged as IC50 <100 uM?): 32.1%
Ki (IDE [2]; [13]): 41 ± 6.4 µM
IC50 (IDE [3]; insulin ELISA assay, dose-response, Replicates 1-3, read-out: IC50s, individual replicates): 20.6 µM and 9.35 µM and 12.2 µM
IC50 (IDE [3]; insulin ELISA assay, dose-response, N=3, read-out: IC50s, Mean): 14 µM
Ki (IDE [3]): 7 ± 1.7 µM
Substance: VHWDFRQW-NH2 [P12-1B]

Ki (IDE [1]; 0-hr incubation): 139 µM
Ki (IDE [1]; 4-hr incubation): 327 µM
remaining activity at 0.12207 µM (IDE [1]; [4]): 100%
remaining activity at 0.488281 µM (IDE [1]; [5]): 104%
remaining activity at 1.95312 µM (IDE [1]; [6]): 105%
remaining activity at 7.8125 µM (IDE [1]; [7]): 104%
remaining activity at 31.25 µM (IDE [1]; [8]): 78.2%
remaining activity at 125 µM (IDE [1]; [9]): 24.3%
remaining activity at 500 µM (IDE [1]; [10]): 2.79%
IC50 (IDE [1]; 0-hr incubation (immediately after combining enzyme and peptide), individual runs, read-out: IC50s): 150 µM and 254 µM and 220 µM
IC50 (IDE [1]; [11]): 482 µM and 500 µM
IC50 (IDE [1]; [12]): 491 µM
IC50 (IDE [2]; read-out: IC50s, Mean): 208 µM
IC50 <500 uM? (IDE [2]): YES
remaining activity at 500 µM (IDE [2]; [14]): 12.6%
remaining activity at 500 µM (IDE [2]; judged as IC50 <100 uM?): 33.8%
Ki (IDE [2]; [13]): 139 ± 21 µM
IC50 (IDE [3]; from initial test at 10 uM using insulin (100 nM), read-out: IC50 (summary of results, listed in Table 1)): > 10 µM
Ki (IDE [3]): > 10 µM
Substance: Ac-FRQWWQPS [P12-1C]

Percent Activity (normalized initial velocity of FRET1 hydrolysis) (IDE [1]; 0-hr incubation, Cmpd 0.12207 uM, individual runs): 96.4522% and 96.759% and 99.5993%
Percent Activity (normalized initial velocity of FRET1 hydrolysis) (IDE [1]; 0-hr incubation, Cmpd 0.488281 uM, individual runs): 102.379% and 100.264% and 105.198%
Percent Activity (normalized initial velocity of FRET1 hydrolysis) (IDE [1]; 0-hr incubation, Cmpd 1.95312 uM, individual runs): 104.101% and 99.4736% and 108.303%
Percent Activity (normalized initial velocity of FRET1 hydrolysis) (IDE [1]; 0-hr incubation, Cmpd 7.8125 uM, individual runs): 98.6262% and 96.0429% and 106.212%
Percent Activity (normalized initial velocity of FRET1 hydrolysis) (IDE [1]; 0-hr incubation, Cmpd 31.25 uM, individual runs): 88.0717% and 83.2988% and 94.9104%
Percent Activity (normalized initial velocity of FRET1 hydrolysis) (IDE [1]; 0-hr incubation, Cmpd 125 uM, individual runs): 50.9238% and 50.5662% and 58.9795%
Percent Activity (normalized initial velocity of FRET1 hydrolysis) (IDE [1]; 0-hr incubation, Cmpd 500 uM, individual runs): 18.0015% and 16.3891% and 26.5742%
Percent Activity (normalized initial velocity of FRET1 hydrolysis) (IDE [1]; [4]): 81.980% and 88.388%
Percent Activity (normalized initial velocity of FRET1 hydrolysis) (IDE [1]; [5]): 82.055% and 87.340%
Percent Activity (normalized initial velocity of FRET1 hydrolysis) (IDE [1]; [6]): 95.585% and 92.840%
Percent Activity (normalized initial velocity of FRET1 hydrolysis) (IDE [1]; [7]): 94.853% and 93.557%
Percent Activity (normalized initial velocity of FRET1 hydrolysis) (IDE [1]; [8]): 102.800% and 95.281%
Percent Activity (normalized initial velocity of FRET1 hydrolysis) (IDE [1]; [9]): 90.299% and 99.861%
Percent Activity (normalized initial velocity of FRET1 hydrolysis) (IDE [1]; [10]): 61.928% and 59.590%
Percent activity at 500 uM, Mean (IDE [2]; [14]): 3.0%
Percent activity at 500 uM, Mean (IDE [2]; judged as IC50 <100 uM?): 48.5%
percent decrease in insulin detected by ELISA, Replicate 1 (IDE [3]; [15]): 77.7%
percent decrease in insulin detected by ELISA, Replicate 2 (IDE [3]; [15]): 71.2%
percent decrease in insulin detected by ELISA, Replicate 3 (IDE [3]; [15]): 96.7%
percent decrease in insulin detected by ELISA, Replicate 4 (IDE [3]; [15]): 88.5%
percent decrease in insulin detected by ELISA, Mean (IDE [3]; peptide at 10 uM, insulin 100 nM, normalized to DMSO-only and no-enzyme controls, N=4): 83.5%
Substance: LPWCTPHC [P12-3D]
